Source: BindingDB's records for patent US10633389 (Epizyme, Inc., 2020)

Target: T1, Histone-arginine methyltransferase CARM1 (Homo sapiens, UniProt Q86X55)
T1 sequence (Q86X55 whole entry): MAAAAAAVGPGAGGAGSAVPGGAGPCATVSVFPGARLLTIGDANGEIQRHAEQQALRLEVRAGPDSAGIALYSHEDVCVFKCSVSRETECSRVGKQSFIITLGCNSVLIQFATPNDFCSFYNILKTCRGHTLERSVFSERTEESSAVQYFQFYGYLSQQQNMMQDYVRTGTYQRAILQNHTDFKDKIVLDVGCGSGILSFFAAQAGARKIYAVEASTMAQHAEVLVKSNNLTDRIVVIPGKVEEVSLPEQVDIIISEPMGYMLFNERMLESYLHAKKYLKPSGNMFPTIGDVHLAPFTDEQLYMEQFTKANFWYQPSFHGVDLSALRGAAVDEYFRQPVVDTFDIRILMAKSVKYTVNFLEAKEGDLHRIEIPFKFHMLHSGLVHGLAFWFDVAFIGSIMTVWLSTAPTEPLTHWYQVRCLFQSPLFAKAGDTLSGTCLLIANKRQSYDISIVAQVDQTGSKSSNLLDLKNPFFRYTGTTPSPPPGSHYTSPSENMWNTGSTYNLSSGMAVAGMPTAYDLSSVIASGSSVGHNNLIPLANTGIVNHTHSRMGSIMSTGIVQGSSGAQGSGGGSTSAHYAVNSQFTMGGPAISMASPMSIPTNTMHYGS
Assay: Enzyme Assay
Description: The assays were all performed in a buffer consisting of 20 mM Bicine (pH=7.6), 1 mM TCEP, 0.005% BSG, and 0.002% Tween 20, prepared on the day of use. […] DMSO (1 ul) was added to Columns 11, 12, 23, 24, rows A-H for the maximum signal control and 1 ul of SAH, a known product and inhibitor of CARM1, was added to columns 11, 12, 23, 24, rows I-P for the minimum signal control. A cocktail (40 ul) containing the CARM1 enzyme was added by Multidrop Combi. The compounds were allowed to incubate with CARM1 for 30 min at room temperature, then a cocktail (10 ul) containing 3H-SAM and peptide was added to initiate the reaction (final volume=51 ul). […] The assays were stopped by the addition of non-radiolabeled SAM (10 ul) to a final concentration of 300 uM, which dilutes the 3H-SAM to a level where its incorporation into the peptide substrate is no longer detectable. 50 ul of the reaction in the 384-well polypropylene plate was then transferred to a 384-well Flashplate and the biotinylated peptides were allowed to bind to the streptavidin surface for at least 1 hour before being washed once with 0.1% Tween20 in a Biotek ELx405 plate washer.

IC50 [nM] | Structure (SMILES)
< 100 | CNC[C@@H](O)COc1ccc(Cl)c(-c2nc(NC3CCN(C4CC4)CC3(F)F)c(C)c(-c3c(C)noc3C)n2)c1 (stereo partly specified) [US10633389, Example 292-3]
< 100 | CCN1CCC(Nc2nc(-c3cc(OC[C@H](O)CNC)ccc3Cl)nc(-c3c(C)noc3C)c2C)C(F)(F)C1 (stereo partly specified) [US10633389, Example 291-3]
< 100 | CNCC(O)COc1cccc(-c2nc(N[C@@H]3CCOC3)c(C)c(-c3ccc4nccn4c3)n2)c1 (stereo partly specified) [US10633389, Example 445-1a]
< 100 | CNCC(O)COc1cccc(-c2nc(N[C@@H]3CCOC3)c(C)c(N3CCC(n4c(C)nnc4C)CC3)n2)c1 (stereo partly specified) [US10633389, Example 390-1a]
< 100 | CCS(=O)(=O)n1cc(-c2cc(N(C)C3CCOCC3)nc(-c3cccc(OCC(O)CNC)c3)n2)c2cncnc21 (stereo unspecified) [US10633389, Example 484-1a]
< 100 | CNCC(O)COc1cccc(-c2nc(N[C@@H]3CCOC3)c(C)c(N3CCC[C@H]4CN(Cc5ccccc5)C[C@H]43)n2)c1 (stereo partly specified) [US10633389, Example 378-1a]
